Test results: paper PMC12564639, “Discovery of a Novel Anticoagulant Cystine Knot Peptide from Spider Venom Gland Transcriptome” (International Journal of Molecular Sciences, 2025)
Peptide text beside a SMILES is read from it.

Assays:
[1] = system: cortical photothrombotic stroke in mice; experiment: Rose Bengal-mediated cortical photothrombotic stroke (CPS) model; type: in vivo, mouse; settings: n = 6; for blood flow reduction (cerebral): laser speckle perfusion, vehicle 40.1%
Procedure: (§1) The C57BL/6J mice (male, 6–8 weeks old) were purchased from Beijing Vital River Laboratory Animal Technology Co., Ltd. (Beijing, China). All animal studies were performed under the approval of the Ethics Committee of the Laboratory Animal Welfare of the Kunming Institute of Zoology, Chinese Academy of Sciences (IACUC-RE-2025-03-010).
The Rose Bengal-mediated CPS model was employed to induce focal cerebral ischemia in mice. Rose Bengal (50 mg/kg), a photosensitive dye, was administered intravenously 1 h before the surgery, followed by an intravenous injection of PBS (vehicle control), GC38 (2 or 4 mg/kg), and heparin sodium (1000 U/kg) 10 min before the surgery. Briefly, mice were anesthetized and secured in a stereotaxic frame. A midline scalp incision was made to expose the skull, followed by illumination with a 562 nm yellow-green laser (R-LG561-100-A5, RWD Life Science, Shenzhen, China) for 7 min. This process generated reactive oxygen species, resulting in endothelial damage and subsequent thrombus formation. Post-illumination, the scalp was sutured, and mice were placed on a warming pad for recovery. Cerebral ischemia severity was evaluated using the LSP imaging system, and the 15-day survival rates after ischemia induction were recorded.

[2] = system: human plasma, intrinsic clotting cascade; experiment: Activated partial thromboplastin time (APTT); type: biochemical; settings: GC38 10 μM; human plasma 20 μL, pre-incubation 5 min at 37 °C, APTT reagent 5 min, CaCl2; scattered light; mean, n = 3
Procedure: APTT and PT were measured with commercially available kits according to the manufacturer’s instructions. For APTT determination, 20 μL human plasma was pre-incubated with GC38 (0.1, 1, and 10 µM) at 37 °C for 5 min, and then 30 μL APTT reagent was added and incubated for another 5 min. Subsequently, 40 μL pre-warmed CaCl2 (37 °C) was added to initiate the intrinsic clotting cascade. The intensity of the scattered light was monitored until the signals reached saturation. For PT determination, 20 μL human plasma was pre-incubated with GC38 (0.1, 1, and 10 µM) at 37 °C for 5 min. Then, 75 μL PT reagent was added to initiate the extrinsic clotting cascade. The intensity of the scattered light was monitored until the signals reached saturation. The coagulation time (APTT or PT) was defined as the time point at which the scattered light signal reached the midpoint between the baseline and maximum amplitude. All concentrations were tested in triplicate. Results are shown as mean values, and the time at maximum reactive velocity was also reported.

mouse tail bleeding = experiment: Tail bleeding time; type: in vivo, C57BL/6J mice; settings: n = 6; for tail bleeding time: 10 min after administration, vehicle 89.8 s
Procedure: as §1
The mouse tail-bleeding assay was performed to evaluate the bleeding risk associated with GC38 treatment. Male C57BL/6J mice (6–8 weeks, n = 6 per group) were randomized to receive intravenous injection of PBS (negative control), GC38 (2 or 4 mg/kg in PBS), or heparin sodium (1000 U/kg, positive control). The assay was conducted 10 min after administration. Mice were anesthetized, and a 2 mm segment of the tail tip was surgically transected using a sterile scalpel. Immediately after the incision, the tail was immersed in prewarmed PBS (37 °C) to facilitate blood flow. Bleeding time was recorded from the moment of the incision until the complete cessation of bleeding (no blood flow for 60 s).

[3] = target: T1, Human Activated Protein C (APC-1.0) (Homo sapiens, UniProt P04070); experiment: APC activity by chromogenic substrate assay; type: biochemical; settings: APC 0.7145 μM, S-2366 402.1 μM, PBS, 37 °C, pre-incubation 10 min, n = 3
T1 construct: purchased Enzyme Research Laboratories, Inc., South Bend, IN, USA APC-1.0
T1 sequence (P04070 212-461 limits assumed): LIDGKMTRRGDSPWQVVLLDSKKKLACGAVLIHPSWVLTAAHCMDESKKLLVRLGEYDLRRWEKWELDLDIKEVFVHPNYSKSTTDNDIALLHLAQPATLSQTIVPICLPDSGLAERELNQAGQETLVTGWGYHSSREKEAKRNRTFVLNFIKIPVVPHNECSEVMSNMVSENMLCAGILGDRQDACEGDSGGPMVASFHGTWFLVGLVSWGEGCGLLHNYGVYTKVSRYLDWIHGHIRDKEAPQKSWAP
T1 sequence (P04070 43-197 limits assumed): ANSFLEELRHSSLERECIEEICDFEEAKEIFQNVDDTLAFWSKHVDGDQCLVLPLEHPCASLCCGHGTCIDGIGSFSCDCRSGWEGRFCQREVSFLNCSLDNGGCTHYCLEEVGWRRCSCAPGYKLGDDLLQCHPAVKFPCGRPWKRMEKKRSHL
Description: Human Activated Protein C (APC-1.0) was purchased from Enzyme Research Laboratories, Inc., South Bend, IN, USA. […] Activated Partial Thromboplastin Time (APTT) Test Kit (TC0306) was bought from Senkey Biotechnology Co., Ltd., Kunming, China. Prothrombin Time (PT) Test Kit (GMS10176) was purchased from GENMED Scientifics Inc., Shanghai, China. Streptavidin (SA) Biosensors (18-5019) were obtained from Sartorius AG, Göttingen, Lower Saxony, Germany. PBS (21-040-CVC) was bought from Corning Incorporated, Corning, NY, USA. Tween-20 (BS361B) was purchased from Biosharp Life Sciences, Hefei, Anhui, China. Trifluoroacetic acid (TFA, T818778-500ml, CAS: 76-05-1) and CaCl2 (C805225) were obtained from Macklin Biochemical Co., Ltd., Shanghai, China. L-oxidized glutathione (GSSG, V900363), Rose Bengal Dye (content 95%, CAS: 632-69-9, 330000-5G), and HEPES (V900477-500G) were purchased from Sigma-Aldrich LLC, St. Louis, MO, USA (Shanghai branch: Sigma-Aldrich Shanghai Trading Co., Ltd., Shanghai, China). […]
APC (0.7145 μM) was pre-incubated with varying concentrations of GC38 (0.1, 1 and 10 μM) in PBS at 37 °C for 10 min. […] Kinetic measurements were performed at 37 °C using a Multi-Mode Microplate Reader (BioTek Synergy™ H1, Winooski, VT, USA) with absorbance at 405 nm recorded every 10 s for 30 min. […]

**Q.** What does the source list for CSCC[C@@H]1NC(=O)[C@H](CC(N)=O)NC(=O)CNC(=O)CNC(=O)[C@H](Cc2c[nH]cn2)NC(=O)[C@H](CCCNC(=N)N)NC(=O)CNC(=O)[C@@H]2CSSC[C@@H]3NC(=O)[C@H](CCCNC(=N)N)NC(=O)[C@H](C)NC(=O)CNC(=O)[C@H](CCCCN)NC(=O)CNC(=O)[C@H](CO)NC(=O)[C@@H](NC(=O)CN)CSSC[C@H](NC(=O)[C@H](CSSC[C@@H](C(=O)N[C@@H](CCC(=O)O)C(=O)N[C@@H](Cc4c[nH]c5ccccc45)C(=O)N[C@@H](CC(N)=O)C(=O)N[C@@H](Cc4c[nH]c5ccccc45)C(=O)N[C@@H](CCCCN)C(=O)N[C@H](C(=O)NCC(=O)O)[C@@H](C)O)NC(=O)[C@H](CO)NC(=O)[C@H](CCCCN)NC(=O)[C@H](Cc4ccc(O)cc4)NC1=O)NC(=O)[C@H](CCCCN)NC(=O)[C@H](CO)NC(=O)[C@@H]1CCCN1C(=O)[C@H](C)NC3=O)C(=O)N[C@@H](CO)C(=O)NCC(=O)N[C@@H](CC(C)C)C(=O)N[C@@H](CO)C(=O)N2 [GC38] (HELM PEPTIDE1{G.C.S.G.K.G.A.R.C.A.P.S.K.C.C.S.G.L.S.C.G.R.H.G.G.N.M.Y.K.S.C.E.W.N.W.K.T.G}$PEPTIDE1,PEPTIDE1,2:R3-15:R3|PEPTIDE1,PEPTIDE1,9:R3-20:R3|PEPTIDE1,PEPTIDE1,14:R3-31:R3$$$V2.0)?
**A.** blood flow reduction (cerebral) ([1]; GC38 2 mg/kg i.v. 10 min before surgery): 22.0%; blood flow reduction (cerebral) ([1]; GC38 4 mg/kg i.v. 10 min before surgery): 6.4%; microvascular occlusion and ischemic lesions ([1]; GC38 4 mg/kg i.v.): delayed microvascular occlusion and alleviated the formation of ischemic lesions; 15-day survival rate ([1]; versus untreated group): improved the 15-day survival rate of mice; APTT extension versus control [2]: 1.4 fold; tail bleeding time (mouse tail bleeding; GC38 2 mg/kg i.v.): 97.6 s; tail bleeding time (mouse tail bleeding; GC38 4 mg/kg i.v.): 100.6 s; tail bleeding time versus vehicle control (mouse tail bleeding; GC38 2 and 4 mg/kg i.v.): comparable to the vehicle control group; activity of APC at maximum catalytic velocity (Vmax) ([3]; GC38 10 μM, 405 nm, versus PBS control, mean): 171%; APC activity, concentration dependence ([3]; GC38 0.1-10 μM, absorbance 405 nm every 10 s for 30 min): enhanced APC activity in a concentration-dependent manner
